In this data set the target is T1, hERG channel (Homo sapiens, UniProt Q12809).
T1 construct: expressed in transfected cells; host or cells: CHO (Chinese hamster ovary), CHOhERG
In words: hERG channel inhibition assay (patch-clamp, CHOhERG cells). Format: cell-based. As to conditions: whole-cell patch-clamp; for IC20: human, CHO cells stably expressing hERG (CHOhERG). The protocol: hERG Channel Inhibition Assay
The hERG K^+ channels were cloned in humans and stably expressed in a CHO (Chinese hamster ovary) cell line. CHOhERG cells were used for patch-clamp (voltage-clamp, whole-cell) experiments. Cells were stimulated by a voltage pattern to activate hERG channels and conduct IKhERG Currents (rapid delayed outward rectifier potassium current of the hERG channel). After the cells were stabilized for a few minutes, the amplitude and kinetics of IKhERG were recorded at a stimulation frequency of 0.1 Hz (6 bpm). Thereafter, the test compound was added to the preparation at increasing concentrations. For each concentration, an attempt was made to reach a steady-state effect, usually, this was achieved within 3-10 min at which time the next highest concentration was applied. The amplitude and kinetics of IKhERG are recorded in each concentration of the drug which were compared to the control values (taken as 100%). (references: Redfern W S, Carlsson L, Davis A S, Lynch W G, MacKenzie I, Palethorpe S, Siegl P K, Strang I, Sullivan A T, Wallis R, Camm A J, Hammond T G. 2003; Relationships between preclinical cardiac electrophysiology, clinical QT interval prolongation and torsade de pointes for a broad range of drugs: evidence for a provisional safety margin in drug development. Cardiovasc. Res. 58:32-45, Sanguinetti M C, Tristani-Firouzi M. 2006; hERG potassium channels and cardiac arrhythmia. Nature 440:463-469, Webster R, Leishman D, Walker D. 2002; Towards a drug concentration effect relationship for QT prolongation and torsades de pointes. Curr. Opin. Drug Discov. Devel. 5:116-26).
A general note: The hERG channel carries a current that helps repolarise heart muscle cells.

T1 sequence (Q12809 whole entry): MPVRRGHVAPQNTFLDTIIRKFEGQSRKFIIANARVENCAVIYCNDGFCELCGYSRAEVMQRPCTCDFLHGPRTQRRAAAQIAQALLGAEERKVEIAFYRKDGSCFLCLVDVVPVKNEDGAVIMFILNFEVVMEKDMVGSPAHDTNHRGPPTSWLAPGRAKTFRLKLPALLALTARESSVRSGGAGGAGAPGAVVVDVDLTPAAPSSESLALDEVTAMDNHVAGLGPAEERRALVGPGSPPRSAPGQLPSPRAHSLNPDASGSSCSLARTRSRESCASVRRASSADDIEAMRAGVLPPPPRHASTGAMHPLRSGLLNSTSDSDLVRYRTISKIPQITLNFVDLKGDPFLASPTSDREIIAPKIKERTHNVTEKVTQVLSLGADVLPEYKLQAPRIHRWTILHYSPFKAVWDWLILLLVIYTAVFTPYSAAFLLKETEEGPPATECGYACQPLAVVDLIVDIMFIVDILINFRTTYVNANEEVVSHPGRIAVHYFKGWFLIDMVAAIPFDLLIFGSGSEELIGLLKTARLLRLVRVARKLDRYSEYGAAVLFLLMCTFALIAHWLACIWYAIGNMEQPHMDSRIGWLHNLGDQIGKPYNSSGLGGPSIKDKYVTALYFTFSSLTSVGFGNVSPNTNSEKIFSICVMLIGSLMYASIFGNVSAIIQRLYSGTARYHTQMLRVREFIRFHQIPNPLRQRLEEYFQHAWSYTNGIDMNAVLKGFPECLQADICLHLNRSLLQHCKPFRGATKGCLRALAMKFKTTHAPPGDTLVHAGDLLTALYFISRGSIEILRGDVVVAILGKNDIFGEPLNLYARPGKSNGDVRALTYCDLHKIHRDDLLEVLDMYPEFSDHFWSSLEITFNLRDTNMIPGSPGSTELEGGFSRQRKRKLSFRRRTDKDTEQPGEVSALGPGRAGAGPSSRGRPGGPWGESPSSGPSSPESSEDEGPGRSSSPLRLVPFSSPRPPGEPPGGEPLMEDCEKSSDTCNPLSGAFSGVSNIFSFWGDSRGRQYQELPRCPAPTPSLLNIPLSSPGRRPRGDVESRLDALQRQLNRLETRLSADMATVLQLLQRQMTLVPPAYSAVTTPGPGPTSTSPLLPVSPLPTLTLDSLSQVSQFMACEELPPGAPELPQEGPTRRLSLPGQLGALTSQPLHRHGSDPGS

As for `C[C@@H]1CN(c2cc(=O)n(C)c3ncccc23)C[C@@H]2c3ccc(N4CC5(CN(C)C5)C4)cc3CN12` [Example 2, 4-[(4R,10bS)-4-methyl-8-(6-methyl-2,6-diazaspiro[3.3]heptan-2-yl)-3,4,6,10b-tetrahydro-1H-pyrazino[2,1-a]isoindol-2-yl]-1-methyl-1,8-naphthyridin-2-one], the IC20 (usually the point of the concentration-response curve where the effect stands at 20%) is greater than 10 µM and the IC50 (usually the concentration needed to halve the response being measured) is greater than 20 µM.

For `CO[C@@H]1CN(c2ccc3c(c2)CN2[C@H](C)CN(c4cc(=O)n(C)c5ncccc45)C[C@H]32)C[C@H]1N` [Example 5, 4-[(4R,10bS)-8-[(3R,4R)-3-amino-4-methoxy-pyrrolidin-1-yl]-4-methyl-3,4,6,10b-tetrahydro-1H-pyrazino[2,1-a]isoindol-2-yl]-1-methyl-1,8-naphthyridin-2-one], the IC20 was greater than 10 µM and the IC50 was greater than 20 µM.

Turning to `C[C@@H]1CN(c2cc(=O)n(C)c3ncccc23)C[C@@H]2c3ccc(N4CCN[C@@H](C)C4)cc3CN12` [Example 13, 4-[(4R,10bS)-4-methyl-8-[(3S)-3-methylpiperazin-1-yl]-3,4,6,10b-tetrahydro-1H-pyrazino[2,1-a]isoindol-2-yl]-1-methyl-1,8-naphthyridin-2-one], the 20% effect concentration (IC20) turned out to be 7.2 µM and the IC50 is greater than 20 µM.

As for `C[C@@H]1CN(c2ccc3c(c2)CN2[C@H](C)CN(c4cc(=O)n(C)c5ncccc45)C[C@H]32)CCN1` [Example 14, 4-[(4R,10bS)-4-methyl-8-[(3R)-3-methylpiperazin-1-yl]-3,4,6,10b-tetrahydro-1H-pyrazino[2,1-a]isoindol-2-yl]-1-methyl-1,8-naphthyridin-2-one], the IC20 is greater than 10 µM and the IC50 was greater than 20 µM.

For the molecule `C[C@@H]1CN(c2cc(=O)n(C)c3ncccc23)C[C@@H]2c3ccc(N4CCC[C@](C)(N)C4)cc3CN12` [Example 15, 4-[(4R,10bS)-8-[(3S)-3-amino-3-methyl-1-piperidyl]-4-methyl-3,4,6,10b-tetrahydro-1H-pyrazino[2,1-a]isoindol-2-yl]-1-methyl-1,8-naphthyridin-2-one], the IC20 was greater than 10 µM and the IC50 is greater than 20 µM.

For `C[C@@H]1CN(c2cc(=O)n(C)c3ncccc23)C[C@@H]2c3ccc(N4CCC(C)(N)CC4)cc3CN12` [Example 18, 4-[(4R,10bS)-8-(4-amino-4-methyl-1-piperidyl)-4-methyl-3,4,6,10b-tetrahydro-1H-pyrazino[2,1-a]isoindol-2-yl]-1-methyl-1,8-naphthyridin-2-one], the IC20 is greater than 10 µM and the IC50 is greater than 20 µM.

For `C[C@@H]1CN(c2cc(=O)n(C)c3ncccc23)C[C@@H]2c3ccc(N4C[C@@H]5C[C@H]4CN5)cc3CN12` [Example 19, 4-[(4R,10bS)-8-[(1S,4S)-2,5-diazabicyclo[2.2.1]heptan-2-yl]-4-methyl-3,4,6,10b-tetrahydro-1H-pyrazino[2,1-a]isoindol-2-yl]-1-methyl-1,8-naphthyridin-2-one], the IC20 was greater than 10 µM and the IC50 is greater than 20 µM.

In the case of `C[C@@H]1CN(c2cc(=O)n(C)c3ncccc23)C[C@@H]2c3ccc(N4CCOC[C@H](N)C4)cc3CN12` [Example 22, 4-[(4R,10bS)-8-[(6R)-6-amino-1,4-oxazepan-4-yl]-4-methyl-3,4,6,10b-tetrahydro-1H-pyrazino[2,1-a]isoindol-2-yl]-1-methyl-1,8-naphthyridin-2-one], the IC20 was greater than 10 µM and the IC50 was greater than 20 µM.

As for `C[C@@H]1CN(c2cc(=O)n(C)c3ncccc23)C[C@@H]2c3ccc(C4CCNCC4)cc3CN12` [Example 24, 4-[(4R,10bS)-4-methyl-8-(4-piperidyl)-3,4,6,10b-tetrahydro-1H-pyrazino[2,1-a]isoindol-2-yl]-1-methyl-1,8-naphthyridin-2-one], the IC20 is greater than 10 µM and the IC50 is greater than 20 µM.

Values taken from patent US20230041743A1, “1,8-NAPHTHYRIDIN-2-ONE COMPOUNDS FOR THE TREATMENT OF AUTOIMMUNE DISEASE” (Hoffmann-La Roche Inc., priority 2019, published 2023).
